Assay results published in patent US20070203163A1, “Novel Treatment Of Irritable Bowel Syndrome 1” (priority 2003, published 2007).

Tested on: visceromotor response to colorectal distension
Test: Visceromotor response to isobaric colorectal distension in rats
Format: in vivo, rats (Sprague Dawley)
Description: In this study the effect of acute administration of a compound on the visceromotor response to isobaric colorectal distension in rats is investigated (Ritchie J. Pain from distension of the pelvic colon by inflating a balloon in the irritable bowel syndrome. Gut 1973; 6: 105-112. Ness T J, Gebhart G F. Colorectal distension as a noxious visceral stimulus: physiological and pharmacological characterization of pseudoeffective reflexes in the rat. Brain Research 1988; 450: 153-169).
Colorectal distension (CRD) is performed in all rats (Sprague Dawley) using a paradigm of 12 consecutive distensions (or pulses) at 80 mmHg for 30 seconds each with 4.5 minute intervals (12×80 mmHg). The visceromotor respbnse is determined by quantifying phasic changes in the balloon pressure, which is processed by specially designed computer software. The compound is dissolved in saline and administered at the doses of 1, 3 and 10 μmol/kg. The compound is given intravenously in a volume of 1 mL/kg between the third and fourth distension.

Row | SMILES | effect on visceromotor response (VMR) to colorectal distension (1 μmol/kg i.v.) | effect on visceromotor response (VMR) to colorectal distension (3 μmol/kg i.v.) | effect on visceromotor response (VMR) to colorectal distension (10 μmol/kg i.v.) | average visceromotor response (VMR) during colorectal distension, relative to vehicle treated (100±19) (10 μmol/kg i.v., CRD 12×80 mmHg, mean±SEM, n=8)
1 | COCc1cc(C#N)cc(-c2nc(-c3ccc(F)cn3)no2)c1 [3-[3-(5-Fluoro-pyridin-2-yl)-[1,2,4]oxadiazol-5-yl]-5-methoxymethyl-benzonitrile] | transient inhibitory effect | – | – | –
2 | Cc1cccc(C#Cc2ccccc2)n1 [MPEP, 2-methyl-6-(phenylethynyl)-pyridine] | No effect | modest effect during a few distensions only | decreased the visceromotor response (VMR) | 46±11%
